Test results from US9394284B2, “Compounds act at multiple prostaglandin receptors giving a general anti-inflammatory response” (Allergan, Inc., priority 2010, dated 2016).

Experiments:
Assay type in all cases: cell-based
[1] = biological target: T1, human prostanoid EP3 receptor (Homo sapiens, UniProt P43115); assay: FLIPR Ca2+ signaling antagonist assay, EP3 receptor stable cell line; conditions: HEK-293 EBNA stable cell line; standard agonist PGE2; NA = inactive (no antagonism or Kb 10,000 nM); PAg, Ag not defined
T1 construct: expressed in transfected cells
T1 sequence (P43115 1-390): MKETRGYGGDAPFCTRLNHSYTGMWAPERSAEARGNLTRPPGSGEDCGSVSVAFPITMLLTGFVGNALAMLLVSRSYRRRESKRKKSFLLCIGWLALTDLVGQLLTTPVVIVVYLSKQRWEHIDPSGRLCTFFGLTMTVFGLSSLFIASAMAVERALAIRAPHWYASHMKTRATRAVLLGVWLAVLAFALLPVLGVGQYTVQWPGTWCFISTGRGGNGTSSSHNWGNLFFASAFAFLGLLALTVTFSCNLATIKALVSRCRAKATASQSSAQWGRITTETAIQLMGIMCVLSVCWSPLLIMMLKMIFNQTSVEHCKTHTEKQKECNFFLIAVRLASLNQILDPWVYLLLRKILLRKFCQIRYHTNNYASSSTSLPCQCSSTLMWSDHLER
Experimental: The above compounds were tested for PG antagonist activity as follows using human recombinant prostanoid receptor (DP1, EP1-4, FP, IP and TP) stable cell lines:
In order to measure the response of Gs and Gi coupled prostanoid receptors as a Ca^2+ signal, chimeric G protein cDNAs were used. Stable cell lines over-expressing human prostanoid DP1, EP1-4, FP, IP, and TP receptors were established as follows:
Briefly, human prostanoid DP1, EP2, and EP4 receptor cDNAs were co-transfected with chimeric Gqs cDNA containing a haemagglutanin (HA) epitope; human prostanoid EP3 receptors were co-transfected with chimeric Gqi-HA; human EP1, FP, IP, and TP receptor cDNAs were expressed with no exogenous G-proteins. Gqs and Gqi chimeric cDNAs (Molecular Devices, Sunnyvale, Calif., U.S.A.), as well as cDNAs of prostanoid receptors, were cloned into a pCEP4 vector with a hygromycin B selection marker. Transfection into HEK-293 EBNA (Epstein-Barr virus nuclear antigen) cells was achieved by the FuGENE 6 transfection Reagent (Roche Applied Science, Indianapolis, Ind., USA). Stable transfectants were selected according to hygromycin resistance. Because Gqs and Gqi contained an HA epitope, G-protein expression was detected by Western blotting analysis using anti-mouse HA monoclonal antibody and horseradish peroxidase (HRP)-conjugated secondary antibody, while functional expression of prostanoid receptors was detected by FLIPR screening (Matias et al., 2004). These stable cell lines were validated using previously published antagonists at 10 μM against serial dilutions of standard agonists by FLIPR functional assays for Ca^2+ Signaling (as described below).
Ca^2+ signaling studies were performed using a FLIPR TETRA system (Molecular Devices, Sunnyvale, Calif., USA) in the 384-format. This is a high-throughput instrument for cell-based assays to monitor Ca^2+ signaling associated with GPCRs and ion channels. Cells were seeded at a density of 5×10^4 cells/well in BioCoat poly-D-lysine coated, black wall, clear bottom 384-well plates (BD Biosciences, Franklin lakes, NJ, USA) and allowed to attach overnight in an incubator at 37° C. The cells were then washed twice with HBSS-HEPES buffer (Hanks' balanced salt solution without bicarbonate and phenol red, 20 mM HEPES, pH 7.4) using an ELx405 Select CW Microplate Washer (BioTek, Winooski, Vt., USA). After 60 min of dye-loading in the dark using the Ca^2+-sensitive dye Fluo-4AM (Invitrogen, Carlsbad, Calif., USA), at a final concentration of 2×10^−6M, the plates were washed 4 times with HBSS-HEPES buffer to remove excess dye and leaving 50 μl of buffer in each well. The plates were then placed in the FLIPR TETRA instrument and allowed to equilibrate at 37° C. AGN-211377 was added in a 25 μl volume to each well to give final concentrations of 0.1 μM, 0.3 μM, 1 μM, 3 μM, 10 μM, and 30 μM; or 0.067 μM, 0.1 μM, 0.2 μM, 0.3 μM, 0.67 μM, and 1 μM for cells over-expressing TP receptors. After 4.5 minutes, a 7-point serial dilution of the standard agonist for the corresponding receptor, in a 25 μl volume was injected at the final concentrations from 10^−11M to 10^−5M in 10-fold serial dilution increments for cells expressing human recombinant DP1, EP1, EP2, EP3, EP4, FP, and IP receptors. The dose range for the standard agonist for human recombinant TP receptors was from 10^−12 M to 10^−6 M. HBSS-HEPES buffer was used as the negative control for the standard agonists. Cells were excited with LED (light emitting diode) excitation at 470-495 nm and emission was measured through an emission filter at 515-575 nm. Assay plates were read for 3.5 minutes using the FLIPR^TETRA. The peak increase in fluorescence intensity was recorded for each well. On each plate, negative controls, dose response of positive controls, and co-treatments of antagonist-agonist for each dose were in triplicates.
Standard agonists were as follows: DP=BW 245C, EP1-EP4=PGE2, FP=17-phenyl-PGF2α, IP=Cicaprost, and TP=U-46619. […]

[2] = biological target: T2, human prostanoid IP receptor (Homo sapiens, UniProt P43119); assay: FLIPR Ca2+ signaling antagonist assay, IP receptor stable cell line; conditions: HEK-293 EBNA stable cell line; standard agonist Cicaprost; NA = inactive (no antagonism or Kb 10,000 nM); PAg, Ag not defined
T2 construct: expressed in transfected cells
In short: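 Peak Fluo-4 fluorescence (ex 470–495, em 515–575 nm) was read for 3.5 min on FLIPR after agonist injection and expressed relative to 10^−6 M standard agonist. Cells were HEK-293 EBNA transfectants. Test compound was added 4.5 min beforehand at 0.1–30 μM, or 0.067–1 μM for TP.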

[3] = biological target: T3, human prostanoid EP1 receptor (Homo sapiens, UniProt P34995); assay: FLIPR Ca2+ signaling antagonist assay, EP1 receptor stable cell line; conditions: HEK-293 EBNA stable cell line; standard agonist PGE2; NA = inactive (no antagonism or Kb 10,000 nM); PAg, Ag not defined
T3 construct: expressed in transfected cells
T3 sequence (P34995 1-402): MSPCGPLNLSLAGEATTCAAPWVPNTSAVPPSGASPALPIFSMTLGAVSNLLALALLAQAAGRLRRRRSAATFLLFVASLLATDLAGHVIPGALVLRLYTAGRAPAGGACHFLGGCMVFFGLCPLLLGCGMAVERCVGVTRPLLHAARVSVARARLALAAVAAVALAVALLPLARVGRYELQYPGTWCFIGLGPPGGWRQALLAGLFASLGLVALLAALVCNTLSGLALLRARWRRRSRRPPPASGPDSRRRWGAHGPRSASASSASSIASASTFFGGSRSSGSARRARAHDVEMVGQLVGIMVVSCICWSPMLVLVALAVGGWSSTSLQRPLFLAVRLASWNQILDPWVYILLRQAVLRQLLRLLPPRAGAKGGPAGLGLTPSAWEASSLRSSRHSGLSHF
In short: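 HEK-293 EBNA cells stably expressed the receptor: DP1 with chimeric Gqs, EP3 with Gqi, and EP1 and TP without exogenous G protein. Fluo-4AM-loaded cells were preincubated 4.5 min at 37 °C with antagonist (0.1–30 μM; TP 0.067–1 μM) before agonist serial dilutions. Peak FLIPR fluorescence was normalised to the 10^−6 M agonist control.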

T2 sequence (P43119 whole entry): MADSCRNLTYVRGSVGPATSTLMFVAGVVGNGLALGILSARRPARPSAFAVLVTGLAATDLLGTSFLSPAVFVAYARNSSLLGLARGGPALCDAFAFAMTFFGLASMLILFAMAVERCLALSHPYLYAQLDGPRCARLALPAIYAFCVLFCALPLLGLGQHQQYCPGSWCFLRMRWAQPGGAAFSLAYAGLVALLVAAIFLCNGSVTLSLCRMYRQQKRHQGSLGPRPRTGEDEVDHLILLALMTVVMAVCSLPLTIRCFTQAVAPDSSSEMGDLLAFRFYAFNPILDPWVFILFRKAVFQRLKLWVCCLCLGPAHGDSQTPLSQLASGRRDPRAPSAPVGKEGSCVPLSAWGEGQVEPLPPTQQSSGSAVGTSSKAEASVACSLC

| Kb [1] | Kb [2] | Kb [3] | IP (FLIPR) Kb [2] | Structure (SMILES) | EP3 (FLIPR) Kb [1] |
| --- | --- | --- | --- | --- | --- |
| 1700 nM | 800 nM | 6 nM | – | Cc1cc(CCC(=O)NS(=O)(=O)C(F)(F)F)nn1Cc1cc(Cl)ccc1OCC1CCCC1 [Example 43, N-(3-[1-(5-Chloro-2-cyclopentylmethoxybenzyl)-5-methyl-1H-pyrazol-3-yl]-propionyl)C,C,C-trifluoromethanesulfon amide] | – |
| 7100 nM | 1500 nM | 35 nM | – | Cc1cc(CCC(=O)O)nn1Cc1cc(OC(F)(F)F)ccc1OCC1CCCC1 [Example 50, 3-[1-(2-Cyclopentylmethoxy-5-trifluoromethoxy-benzyl)-5-methyl-1H-pyrazol-3-yl]-propionic acid] | – |
| 6600 nM | – | 15 nM | PAg | Cc1cc(CCC(=O)O)nn1Cc1cc(OC(F)(F)F)ccc1OCc1ccc(Cl)cc1 [Example 51, 3-[1-[2-(4-Chloro-benzyloxy)-5-trifluoromethoxy-benzyl]-5-methyl-1H-pyrazol-3-yl]-propionic acid] | – |
| 2800 nM | – | 5 nM | PAg | Cc1cc(CCC(=O)O)nn1Cc1cc(C(F)(F)F)ccc1OCc1ccc(Cl)cc1 [Example 52, 3-[1-[2-(4-Chloro-benzyloxy)-5-trifluoromethyl-benzyl]-5-methyl-1H-pyrazol-3-yl]-propionic acid] | – |
| 2700 nM | 1600 nM | 6 nM | – | Cc1cc(CCC(=O)O)nn1Cc1cc(Cl)ccc1C#CC1CCCC1 [Example 73, 3-{1-[5-Chloro-2-cyclopentylethynyl-benzyl]-5-methyl-1H-pyrazol-3-yl}-propionic acid] | – |

More lines, now with the values behind:

| Structure (SMILES) | Kb [1] | Kb [2] | Kb [3] | IP (FLIPR) Kb [2] | EP3 (FLIPR) Kb [1] |
| --- | --- | --- | --- | --- | --- |
| CCC(CC)COc1ccc(Br)cc1Cn1nc(CCC(=O)O)cc1C(C)C [Example 55, 3-{1-[5-Bromo-2-(2-ethyl-butoxy)-benzyl]-5-isopropyl-1H-pyrazol-3-yl}-propionic acid] | 3700 nM | 1100 nM | 60 nM | – | – |
| CCCc1cc(CCC(=O)O)nn1Cc1cc(Br)ccc1OCC(CC)CC [Example 56, 3-{1-[5-Bromo-2-(2-ethyl-butoxy)-benzyl]-5-propyl-1H-pyrazol-3-yl}-propionic acid] | 2700 nM | 1300 nM | 60 nM | – | – |
| CCC(CC)COc1ccc(Br)cc1Cn1nc(CCC(=O)O)cc1C(C)(C)C [Example 57, 3-{1-[5-Bromo-2-(2-ethyl-butoxy)-benzyl]-5-tert-butyl-1H-pyrazol-3-yl}-propionic acid] | 6600 nM | 800 nM | 150 nM | – | – |
| CCC(CC)COc1ccc(Br)cc1Cn1nc(CCC(=O)O)cc1C(F)(F)F [Example 58, 3-{1-[5-Bromo-2-(2-ethyl-butoxy)-benzyl]-5-trifluororomethyl-1H-pyrazol-3-yl}-propionic acid] | – | – | 370 nM | PAg | PAg |
| Cc1cc(CC(C)(C)C(=O)O)nn1Cc1cc(Br)ccc1OCC1CCCC1 [Example 71, 3-{1-[5-Bromo-2-(2-cyclopentylmethoxy)-benzyl]-5-methyl-1H-pyrazol-3-yl}-2,2-dimethyl-propionic acid] | 3200 nM | 3100 nM | 50 nM | – | – |
| Cc1cc(CCC(=O)NS(=O)(=O)C(F)(F)F)nn1Cc1cc(Cl)ccc1CCC1CCCC1 [Example 75] | 1600 nM | 1900 nM | 60 nM | – | – |
